The values below come from patent US20190099259A1, “Method for Treatment and Prevention of Biofilm Formation During Breast Augmentation Procedures” (Integrated Healing Technologies, LLC, priority 2017, published 2019).

The test system of one assay is R. pickettii biofilm. Put plainly: biofilm assay on silicone breast implants. Type of assay: cell-based, Ralstonia Pickettii. On the procedure: Biofilm assays were performed after 2 to 3 mL of 10^5 CFU/mL bacterial inoculum was added to each tube containing the respective implants and placed into a shaking incubator (250-300 rpm) at 30° C. for 24 hours, allowing for formation of biofilm on implants. After 24 hours' incubation, the implants having the biofilm were rinsed twice with Butterfields phosphate buffer. After the rinses, the implants were aseptically transferred to tubes containing 5 mL test articles for contact time points; 5 min and 2 hours. Postincubation, the implants were rinsed twice with Butterfields phosphate buffer, placed in 5 mL of sterile neutralizing buffer and sonicated at 50 to 60 Hz for 5 minutes. Tenfold serial dilutions were performed for each sample tube using neutralizing buffer as the diluent. A total of 100 μL of appropriate dilutions of each sample were plated on a nutrient agar plate in duplicates and incubated overnight. The colonies were counted postincubation. Data were evaluated by comparing the difference in CFU/mL for the implants and blank control at 5 min and 2 hours.

For assay [1], the system named is microbial cells and spore. To be noted: cited from earlier work.

On to `OCl` [Hypochlorous acid, hypochlorous acid], for which the “effect in the biofilm model” value in the assay on R. pickettii biofilm (general statement) is reported as “effective at reducing Ralstonia Pickettii bacterial numbers”. The “potency as a germicide versus equivalent molar ratio of hypochlorite anion” value in assay [1] is 80-100 times.

Regarding `[H]/N=C(\N/C(=N/[H])NCCCCCCNC(=N)NC(=N)Nc1ccc(Cl)cc1)Nc1ccc(Cl)cc1` [Chlorhexidine gluconate], the antibiofilm activity entry with R. pickettii biofilm (Biocell implant, 5 minutes) was “did not have antibiofilm activity”; with R. pickettii biofilm (Biocell implant, 2 hours), “did not have antibiofilm activity”; with R. pickettii biofilm (Siltex implant, 5 minutes), “did not have antibiofilm activity”; with R. pickettii biofilm (Siltex implant, 2 hours), “did not have antibiofilm activity”; in the assay with R. pickettii biofilm (smooth implant, 5 minutes), “limited reduction”; in the assay with R. pickettii biofilm (smooth implant, 2 hours), “complete eradication”. The “penetration of established biofilm” value in the assay with R. pickettii biofilm (after two hours) is on record as “unable to penetrate established biofilm”.
